Measurements reported in EP0769966B1, “BIOTIN COMPOUNDS FOR TARGETTING TUMORS AND SITES OF INFECTION” (priority 1994, dated 1995).

Assays:
avidin = avidin (Gallus gallus, UniProt P02701); experiment: Competitive binding of F-18 labeled biotin analogs to avidin vs. unlabeled d-biotin; settings: in the presence of varying concentrations of unlabeled d-biotin
Method: The two biotin derivatives were evaluated for binding to avidin in the presence of varying concentrations of unlabeled d-biotin as described in Example 3.
A preliminary measure of the binding characteristics of the fluoro analogs of biotin were performed. The binding of these novel F-18 labeled biotin analogs to avidin was evaluated by measuring the binding of F-18 labeled biotin analogs to avidin in the presence of varying concentrations of unlabeled d-biotin. Serial dilutions of d-biotin were prepared in phopshate buffered saline pH 7.4 (PBS). A fixed quantity of the no-carrier added F-18 labeled biotin 1 or 2 (10- 100µCi) were mixed with each d-biotin dilution so that the range of concentrations of cold biotin were 3 orders of magnitude greater and less than the concentration of avidin ([…]). A 200 µl aliquot of the F-18 biotin/cold biotin solution was added to 200 µl of avidin in PBS. The solution was vortexed and allowed to incubate for 1 hour after which time a 5 µl aliquot of the solution was analysed by instant thin layer chromatography (Gelman ILTC-SG) using 0.1 M acetate buffer pH 6.0. In this chromatographic system the F-18 biotin analogs bound to avidin origin while the unbound F-18-biotin analogs move to the solvent front. Percent binding of F-18 biotin analog was calculated as [(counts at origin/total counts)* 100]. For each F-18-biotin analog potential impurities remaining at the origin were determined and the results of binding corrected accordingly.

in vivo = format: in vivo, male Sprague-Dawley rats; settings: rat, in vivo, iv
Method: (§1) A clinical isolate of E. Coli was stored at -70°C in a freezing media containing 20% glycerol and 80% dextrose phosphate until use. Aliquots of bacteria were defrosted and colony counts performed on serial dilutions grown overnight on BBL Brucella agar plates. Based on the colony count, freshly thawed bacteria suspensions were washed and diluted with saline to a final concentration of […]. Aliquots (0.1 ml) of bacterial suspensions (8 x 10^9 organisms/ml) were injected into the right thigh muscle of 48 male Sprague-Dawley rats (125-150 g, Charles River Breeding Laboratories, Burlington, MD). Twenty-four rats were used for each labeled biotin compound. Twenty-four hours after injection, swelling in the right thigh readily appeared, and 24 rats each received 1.67 mg of avidin in saline via the tail vein. […] Rats were sacrificed at 5 and 60 min. post-injection, six rats per time point. Blood samples were obtained by cardiac puncture. Syringes were weighed before and after injection to determine the volume delivered. The activity per unit volume was obtained from standards. A total of eleven different tissues were excised, weighed, and counted. These tissues included blood; bone; lung; liver; adrenal; spleen; kidneys; heart; muscle (thigh); teste; and infected muscle (thigh). The excised tissues were blotted, weighed, and counted in a scintillation well counter. The raw counts were decay corrected. The results were expressed as percent injected dose per gram, and infection-to-normal muscle ratios (mean ± s.d.). The biodistribution results were evaluated by analysis of variance (one-way ANOVA). The effect of avidin […] on biodistribution was evaluated by student t-test.

E. coli infected rats = experiment: in vivo; format: in vivo, male Sprague-Dawley rats; settings: for Infected to normal tissue ratio, Norm mus: infection/normal muscle
Method: as §1

[1] = test system: E. coli infection in right thigh; settings: Time 4 (time unit not given); Reference *1; cited from earlier work

avidin, sequence (P02701 25-152): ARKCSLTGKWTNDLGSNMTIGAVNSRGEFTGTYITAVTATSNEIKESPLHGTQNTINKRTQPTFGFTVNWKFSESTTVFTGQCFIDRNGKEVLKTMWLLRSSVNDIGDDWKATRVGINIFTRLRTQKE

**Q.** What does the source list for `O=C1N[C@H]2[C@H](CS[C@H]2CCCCC[18F])N1` [Biotin 2]?
**A.** binding to avidin (avidin): no specific binding; tissue uptake at 5 min (in vivo; Tissue distribution, Adrenal): 1.56 ± 0.14 %ID/g; tissue uptake at 1 h (in vivo; Tissue distribution, Adrenal): 0.92 ± 0.21 %ID/g; tissue uptake at 5 min (in vivo; Tissue distribution, Blood): 0.88 ± 0.07 %ID/g; tissue uptake at 1 h (in vivo; Tissue distribution, Blood): 0.3 ± 0.02 %ID/g; tissue uptake at 5 min (in vivo; Tissue distribution, Bone): 0.73 ± 0.09 %ID/g; tissue uptake at 1 h (in vivo; Tissue distribution, Bone): 1.17 ± 0.21 %ID/g; tissue uptake at 5 min (in vivo; Tissue distribution, Heart): 0.8 ± 0.06 %ID/g; tissue uptake at 1 h (in vivo; Tissue distribution, Heart): 0.25 ± 0.03 %ID/g; tissue uptake at 5 min (in vivo; Tissue distribution, Inf mus): 0.49 ± 0.05 %ID/g; tissue uptake at 1 h (in vivo; Tissue distribution, Inf mus): 0.2 ± 0.02 %ID/g; tissue uptake at 5 min (in vivo; Tissue distribution, Kidney): 1.62 ± 0.18 %ID/g; tissue uptake at 5 min (in vivo; Tissue distribution, Liver): 1.63 ± 0.27 %ID/g; tissue uptake at 1 h (in vivo; Tissue distribution, Liver): 0.42 ± 0.03 %ID/g; tissue uptake at 5 min (in vivo; Tissue distribution, Lung): 1.38 ± 0.21 %ID/g; tissue uptake at 1 h (in vivo; Tissue distribution, Lung): 0.58 ± 0.1 %ID/g; tissue uptake at 5 min (in vivo; Tissue distribution, Norm mus): 0.62 ± 0.09 %ID/g; tissue uptake at 1 h (in vivo; Tissue distribution, Norm mus): 0.35 ± 0.09 %ID/g; tissue uptake at 5 min (in vivo; Tissue distribution, Spleen): 1.7 ± 0.68 %ID/g; tissue uptake at 1 h (in vivo; Tissue distribution, Spleen): 0.26 ± 0.01 %ID/g; tissue uptake at 5 min (in vivo; Tissue distribution, Teste): 0.59 ± 0.08 %ID/g; tissue uptake at 1 h (in vivo; Tissue distribution, Teste): 0.2 ± 0.03 %ID/g; tissue uptake at 1 h (in vivo; ^18F bone uptake (defluorination in vivo)): 1.17 ± 0.21 %ID/g; Infected to normal tissue ratio, Adrenal (E. coli infected rats; With Avidin, 5 Min.): 0.22±0.03; Infected to normal tissue ratio, Blood (E. coli infected rats; With Avidin, 5 Min.): 0.51±0.07; Infected to normal tissue ratio, Heart (E. coli infected rats; With Avidin, 5 Min.): 0.46±0.03; Infected to normal tissue ratio, Kidney (E. coli infected rats; With Avidin, 5 Min.): 0.16±0.02; Infected to normal tissue ratio, Liver (E. coli infected rats; With Avidin, 5 Min.): 0.23±0.02; Infected to normal tissue ratio, Lung (E. coli infected rats; With Avidin, 5 Min.): 0.28±0.02; Infected to normal tissue ratio, Spleen (E. coli infected rats; With Avidin, 5 Min.): 0.44±0.05; Infected to normal tissue ratio, Teste (E. coli infected rats; With Avidin, 5 Min.): 0.59±0.03; Infected to normal tissue ratio, bone (E. coli infected rats; With Avidin, 5 Min.): 0.51±0.03; Infected to normal tissue ratio, Norm mus (E. coli infected rats; With Avidin, 5 Min.): 0.65±0.10; Infected to normal tissue ratio, Adrenal (E. coli infected rats; With Avidin, 60 Min.): 0.214±0.03; Infected to normal tissue ratio, Blood (E. coli infected rats; With Avidin, 60 Min.): 0.71±0.05; Infected to normal tissue ratio, Heart (E. coli infected rats; With Avidin, 60 Min.): 0.91±0.05; Infected to normal tissue ratio, Kidney (E. coli infected rats; With Avidin, 60 Min.): 0.13±0.02; Infected to normal tissue ratio, Liver (E. coli infected rats; With Avidin, 60 Min.): 0.33±0.05; Infected to normal tissue ratio, Lung (E. coli infected rats; With Avidin, 60 Min.): 0.33±0.06; Infected to normal tissue ratio, Spleen (E. coli infected rats; With Avidin, 60 Min.): 0.35±0.04; Infected to normal tissue ratio, Teste (E. coli infected rats; With Avidin, 60 Min.): 1.15±0.06; Infected to normal tissue ratio, bone (E. coli infected rats; With Avidin, 60 Min.): 0.17±0.03; Infected to normal tissue ratio, Norm mus (E. coli infected rats; With Avidin, 60 Min.): 0.64±0.07; Infected to normal tissue ratio, Adrenal (E. coli infected rats; Without Avidin, 5 Min.): 0.31±0.02; Infected to normal tissue ratio, Blood (E. coli infected rats; Without Avidin, 5 Min.): 0.56±0.04; Infected to normal tissue ratio, Heart (E. coli infected rats; Without Avidin, 5 Min.): 0.61±0.03; Infected to normal tissue ratio, Kidney (E. coli infected rats; Without Avidin, 5 Min.): 0.30±0.02; Infected to normal tissue ratio, Liver (E. coli infected rats; Without Avidin, 5 Min.): 0.31±0.04; Infected to normal tissue ratio, Lung (E. coli infected rats; Without Avidin, 5 Min.): 0.36±0.05; Infected to normal tissue ratio, Spleen (E. coli infected rats; Without Avidin, 5 Min.): 0.70±0.04; Infected to normal tissue ratio, Teste (E. coli infected rats; Without Avidin, 5 Min.): 0.84±0.10; Infected to normal tissue ratio, bone (E. coli infected rats; Without Avidin, 5 Min.): 0.67±0.05; Infected to normal tissue ratio, Norm mus (E. coli infected rats; Without Avidin, 5 Min.): 0.80±0.12; Infected to normal tissue ratio, Adrenal (E. coli infected rats; Without Avidin, 60 Min.): 0.23±0.05; Infected to normal tissue ratio, Blood (E. coli infected rats; Without Avidin, 60 Min.): 0.68±0.06; Infected to normal tissue ratio, Heart (E. coli infected rats; Without Avidin, 60 Min.): 0.81±0.05; Infected to normal tissue ratio, Kidney (E. coli infected rats; Without Avidin, 60 Min.): 0.35±0.03; Infected to normal tissue ratio, Liver (E. coli infected rats; Without Avidin, 60 Min.): 0.48±0.33; Infected to normal tissue ratio, Lung (E. coli infected rats; Without Avidin, 60 Min.): 0.43±0.20; Infected to normal tissue ratio, Spleen (E. coli infected rats; Without Avidin, 60 Min.): 0.78±0.08; Infected to normal tissue ratio, Teste (E. coli infected rats; Without Avidin, 60 Min.): 1.04±0.11; Infected to normal tissue ratio, bone (E. coli infected rats; Without Avidin, 60 Min.): 0.17±0.03; Infected to normal tissue ratio, Norm mus (E. coli infected rats; Without Avidin, 60 Min.): 0.58 ± 0.07; Infected to normal tissue ratio, Norm mus (E. coli infected rats; Without Avidin, 60 Min., listed as 18F-labeled biotin 2): 0.58±0.07; Tissue distribution, Adrenal (E. coli infected rats; rat, in vivo, iv, 5 min): 2.00±0.24 percent injected dose per gram; Tissue distribution, Blood (E. coli infected rats; rat, in vivo, iv, 5 min): 0.85±0.04 percent injected dose per gram; Tissue distribution, Bone (E. coli infected rats; rat, in vivo, iv, 5 min): 0.86±0.12 percent injected dose per gram; Tissue distribution, Heart (E. coli infected rats; rat, in vivo, iv, 5 min): 0.96±0.10 percent injected dose per gram; Tissue distribution, Inf mus (E. coli infected rats; rat, in vivo, iv, 5 min): 0.44±0.05 percent injected dose per gram; Tissue distribution, Kidney (E. coli infected rats; rat, in vivo, iv, 5 min): 2.70±0.48 percent injected dose per gram; Tissue distribution, Liver (E. coli infected rats; rat, in vivo, iv, 5 min): 1.91±0.22 percent injected dose per gram; Tissue distribution, Lung (E. coli infected rats; rat, in vivo, iv, 5 min): 1.59±0.16 percent injected dose per gram; Tissue distribution, Norm mus (E. coli infected rats; rat, in vivo, iv, 5 min): 0.69±0.10 percent injected dose per gram; Tissue distribution, Spleen (E. coli infected rats; rat, in vivo, iv, 5 min): 0.99±0.10 percent injected dose per gram; Tissue distribution, Teste (E. coli infected rats; rat, in vivo, iv, 5 min): 0.74±0.11 percent injected dose per gram; Tissue distribution, Adrenal (E. coli infected rats; rat, in vivo, iv, 1 h): 0.72±0.12 percent injected dose per gram; Tissue distribution, Bone (E. coli infected rats; rat, in vivo, iv, 1 h): 1.10±0.20 percent injected dose per gram; Tissue distribution, Inf mus (E. coli infected rats; rat, in vivo, iv, 1 h): 0.18±0.02 percent injected dose per gram; Tissue distribution, Liver (E. coli infected rats; rat, in vivo, iv, 1 h): 0.55±0.13 percent injected dose per gram; Tissue distribution, Lung (E. coli infected rats; rat, in vivo, iv, 1 h): 0.55±0.12 percent injected dose per gram; Tissue distribution, Norm mus (E. coli infected rats; rat, in vivo, iv, 1 h): 0.28±0.04 percent injected dose per gram; Tissue distribution, Spleen (E. coli infected rats; rat, in vivo, iv, 1 h): 0.51±0.09 percent injected dose per gram; Tissue distribution, Teste (E. coli infected rats; rat, in vivo, iv, 1 h): 0.15±0.02 percent injected dose per gram

**Q.** Which Infected/normal muscle ratio [1] does the source give for ^67Ga-citrate here?
**A.** 2.6±0.6
